Experimental data from BindingDB's records for doi:10.1021/np500198g (University of Tuebingen, 2014).
pIC50: −log10 of the molar value.

Target: T1, Prostaglandin G/H synthase 2 (Homo sapiens, UniProt P35354)
T1 sequence (P35354 whole entry): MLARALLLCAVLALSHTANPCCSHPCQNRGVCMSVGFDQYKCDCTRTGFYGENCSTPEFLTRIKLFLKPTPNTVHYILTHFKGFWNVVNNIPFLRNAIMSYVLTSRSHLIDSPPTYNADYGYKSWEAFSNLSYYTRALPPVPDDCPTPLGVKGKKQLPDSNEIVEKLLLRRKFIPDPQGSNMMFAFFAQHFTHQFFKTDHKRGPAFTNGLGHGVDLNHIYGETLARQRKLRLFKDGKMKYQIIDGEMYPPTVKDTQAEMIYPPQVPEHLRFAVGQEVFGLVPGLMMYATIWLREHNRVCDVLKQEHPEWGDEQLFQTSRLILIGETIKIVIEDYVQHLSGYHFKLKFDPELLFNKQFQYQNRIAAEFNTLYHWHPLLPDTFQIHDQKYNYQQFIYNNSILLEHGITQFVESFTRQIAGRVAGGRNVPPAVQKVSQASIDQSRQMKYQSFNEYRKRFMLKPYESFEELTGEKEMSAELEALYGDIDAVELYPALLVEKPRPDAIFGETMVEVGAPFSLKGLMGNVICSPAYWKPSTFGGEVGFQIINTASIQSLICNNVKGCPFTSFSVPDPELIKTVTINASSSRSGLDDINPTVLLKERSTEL
Experiment: Inhibition of human recombinant COX-2 using arachidonic acid as substrate preincubated for 5 mins followed by substrate addition measured after 5 mins by HPLC analysis

CC(C)=CCC[C@H](C(=O)O)[C@@H]1CC[C@]2(C)C3=C(CC[C@@]12C)[C@@]1(C)CC[C@@H](O)C(C)(C)[C@@H]1CC3
pIC50: < 5.00
